Laboratory results as given in PubChem BioAssay AID192 (DTP/NCI, 2004).
Several values for one entry are separate records, joined by “and”; a condition that tells them apart may be missing. Equal values may be shown once. Inconclusive results and toxic doses are left out. Rule for the calls: active = survival T/C of 150% or more; inactive = T/C below 125% in these data.

System: BDF1 mice, B16 melanoma ip, median survival T/C
Experiment: NCI In Vivo Anticancer Drug Screen. Data for tumor model B16 Melanoma (intraperitoneal) in B6D2F1 (BDF1) mice
Details: endpoint: median survival time, higher = longer survival
How it was run: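 Antitumor activity is assessed in mice bearing a transplanted tumor, with survival or tumor size compared against vehicle-dosed controls and expressed as T/C.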

[1] = dose: 6.25 mg/kg/injection, schedule: Q01DX009 (ip), vehicle: saline
[2] = dose: 12.5 mg/kg/injection, schedule: Q01DX009 (ip), vehicle: saline

Measured: T/C

CN(C)/N=N/c1nc[nH]c1C(N)=O
inactive: [1] 110 % of control | dose: 6.25 mg/kg/injection, schedule: Q01DX009 (ip), vehicle: steriod suspending solution 105 % of control | dose: 12.5 mg/kg/injection, schedule: Q01DX009 (ip), vehicle: carboxymethylcellulose (CMC) 121 % of control | [2] 115 % of control | dose: 12.5 mg/kg/injection, schedule: Q01DX009 (ip), vehicle: steriod suspending solution 107 % of control | dose: 13.0 mg/kg/injection, schedule: Q01DX009 (ip), vehicle: saline with Tween-80 114 % of control | dose: 18.75 mg/kg/injection, schedule: Q01DX009 (ip), vehicle: Klucel (hydroxypropylcellulose) (HPC) 101 % of control | dose: 18.8 mg/kg/injection, schedule: Q01DX009 (ip), vehicle: saline 105 % of control | dose: 18.8 mg/kg/injection, schedule: Q04DX005 (ip), vehicle: saline 94 % of control | dose: 25.0 mg/kg/injection, schedule: Q01DX009 (ip), vehicle: carboxymethylcellulose (CMC) 115 % of control | dose: 25.0 mg/kg/injection, schedule: Q01DX009 (ip), vehicle: distilled water + Tween-80 117 % of control | dose: 25.0 mg/kg/injection, schedule: Q01DX009 (ip), vehicle: saline with Tween-80 107 % of control | dose: 25.0 mg/kg/injection, schedule: Q01DX009 (ip), vehicle: saline 102 % of control and 110 % of control and 114 % of control | dose: 25.0 mg/kg/injection, schedule: Q01DX009 (ip), vehicle: steriod suspending solution 115 % of control | dose: 25.0 mg/kg/injection, schedule: Q01DX017 (ip), vehicle: saline 116 % of control | dose: 25.0 mg/kg/injection, schedule: Q04DX003 (ip), vehicle: saline with Tween-80 104 % of control and 105 % of control and 115 % of control | dose: 27.5 mg/kg/injection, schedule: Q01DX009 (ip), vehicle: saline 100 % of control | dose: 37.0 mg/kg/injection, schedule: Q01DX009 (ip), vehicle: saline with Tween-80 112 % of control | dose: 37.5 mg/kg/injection, schedule: Q04DX003 (ip), vehicle: saline 100 % of control | dose: 37.5 mg/kg/injection, schedule: Q04DX005 (ip), vehicle: saline 97 % of control | dose: 48.0 mg/kg/injection, schedule: Q01DX005 (ip), vehicle: Klucel (hydroxypropylcellulose) (HPC) 99 % of control | dose: 50.0 mg/kg/injection, schedule: Q01DX009 (ip), vehicle: carboxymethylcellulose (CMC) 110 % of control | dose: 50.0 mg/kg/injection, schedule: Q01DX009 (ip), vehicle: saline with Tween-80 124 % of control | dose: 50.0 mg/kg/injection, schedule: Q01DX009 (ip), vehicle: saline 105 % of control and 114 % of control and 121 % of control | dose: 50.0 mg/kg/injection, schedule: Q01DX009 (ip), vehicle: steriod suspending solution 115 % of control | dose: 50.0 mg/kg/injection, schedule: Q01DX017 (ip), vehicle: saline 114 % of control | dose: 50.0 mg/kg/injection, schedule: Q04DX003 (ip), vehicle: saline with Tween-80 115 % of control | dose: 72.0 mg/kg/injection, schedule: Q01DX005 (ip), vehicle: Klucel (hydroxypropylcellulose) (HPC) 101 % of control | dose: 75.0 mg/kg/injection, schedule: Q01DX001 (ip), vehicle: saline 114 % of control | dose: 75.0 mg/kg/injection, schedule: Q04DX003 (ip), vehicle: saline 107 % of control | dose: 75.0 mg/kg/injection, schedule: Q04DX005 (ip), vehicle: saline 107 % of control | dose: 100.0 mg/kg/injection, schedule: Q01DX009 (ip), vehicle: carboxymethylcellulose (CMC) 105 % of control | dose: 100.0 mg/kg/injection, schedule: Q01DX009 (ip), vehicle: distilled water + Tween-80 124 % of control | dose: 100.0 mg/kg/injection, schedule: Q01DX009 (ip), vehicle: saline with Tween-80 123 % of control | dose: 100.0 mg/kg/injection, schedule: Q01DX009 (ip), vehicle: saline 110 % of control (2×) and 119 % of control | dose: 100.0 mg/kg/injection, schedule: Q01DX009 (ip), vehicle: steriod suspending solution 115 % of control | dose: 100.0 mg/kg/injection, schedule: Q01DX017 (ip), vehicle: saline 123 % of control | dose: 108.0 mg/kg/injection, schedule: Q01DX005 (ip), vehicle: Klucel (hydroxypropylcellulose) (HPC) 98 % of control | dose: 130.0 mg/kg/injection, schedule: Q01DX009 (ip), vehicle: DMSO 105 % of control | dose: 148.0 mg/kg/injection, schedule: Q04DX003 (ip), vehicle: saline with Tween-80 110 % of control | dose: 150.0 mg/kg/injection, schedule: Q01DX001 (ip), vehicle: saline 112 % of control | dose: 150.0 mg/kg/injection, schedule: Q04DX003 (ip), vehicle: saline 112 % of control | dose: 160.0 mg/kg/injection, schedule: Q01DX005 (ip), vehicle: Klucel (hydroxypropylcellulose) (HPC) 101 % of control | dose: 166.7 mg/kg/injection, schedule: Q01DX009 (ip), vehicle: saline with Tween-80 77 % of control | dose: 200.0 mg/kg/injection, schedule: Q01DX009 (ip), vehicle: distilled water + Tween-80 121 % of control | dose: 200.0 mg/kg/injection, schedule: Q01DX009 (ip), vehicle: saline 117 % of control and 118 % of control | dose: 200.0 mg/kg/injection, schedule: Q04DX003 (ip), vehicle: saline with Tween-80 109 % of control | dose: 216.0 mg/kg/injection, schedule: Q01DX009 (ip), vehicle: DMSO 109 % of control | dose: 222.0 mg/kg/injection, schedule: Q04DX003 (ip), vehicle: saline with Tween-80 115 % of control | dose: 240.0 mg/kg/injection, schedule: Q01DX005 (ip), vehicle: Klucel (hydroxypropylcellulose) (HPC) 99 % of control | dose: 277.8 mg/kg/injection, schedule: Q01DX009 (ip), vehicle: saline with Tween-80 53 % of control | dose: 300.0 mg/kg/injection, schedule: Q01DX001 (ip), vehicle: saline 102 % of control | dose: 300.0 mg/kg/injection, schedule: Q04DX003 (ip), vehicle: saline 114 % of control | dose: 300.0 mg/kg/injection, schedule: Q04DX005 (ip), vehicle: saline 115 % of control | dose: 333.0 mg/kg/injection, schedule: Q04DX003 (ip), vehicle: saline with Tween-80 124 % of control | dose: 500.0 mg/kg/injection, schedule: Q04DX003 (ip), vehicle: saline with Tween-80 114 % of control | dose: 600.0 mg/kg/injection, schedule: Q01DX001 (ip), vehicle: saline 107 % of control | dose: 600.0 mg/kg/injection, schedule: Q04DX003 (ip), vehicle: saline 95 % of control | dose: 750.0 mg/kg/injection, schedule: Q04DX003 (ip), vehicle: saline with Tween-80 124 % of control | dose: 800.0 mg/kg/injection, schedule: Q04DX003 (ip), vehicle: saline with Tween-80 45 % of control | dose: 1200.0 mg/kg/injection, schedule: Q01DX001 (ip), vehicle: saline 117 % of control

CC1(C)N=C(N)N=C(N)N1c1ccc(CCC(=O)Nc2ccc(S(=O)(=O)F)cc2)c(Cl)c1
inactive: [1] 104 % of control | [2] 108 % of control

COc1ccc(COC=O)cc1
inactive: dose: 100.0 mg/kg/injection, schedule: Q01DX009 (ip), vehicle: Klucel (hydroxypropylcellulose) (HPC) 100 % of control | dose: 200.0 mg/kg/injection, schedule: Q01DX009 (ip), vehicle: Klucel (hydroxypropylcellulose) (HPC) 109 % of control | dose: 400.0 mg/kg/injection, schedule: Q01DX009 (ip), vehicle: Klucel (hydroxypropylcellulose) (HPC) 106 % of control

COC(=O)c1cc(C)c(Br)c(N)c1
inactive: dose: 37.5 mg/kg/injection, schedule: Q04DX003 (ip), vehicle: Klucel (hydroxypropylcellulose) (HPC) 97 % of control | dose: 75.0 mg/kg/injection, schedule: Q04DX003 (ip), vehicle: Klucel (hydroxypropylcellulose) (HPC) 92 % of control | dose: 150.0 mg/kg/injection, schedule: Q04DX003 (ip), vehicle: Klucel (hydroxypropylcellulose) (HPC) 94 % of control

CCCCCCCCCCNCCC(=O)O
inactive: dose: 0.58 mg/kg/injection, schedule: Q01DX009 (ip), vehicle: saline 98 % of control | dose: 1.1 mg/kg/injection, schedule: Q01DX009 (ip), vehicle: saline 96 % of control | dose: 2.3 mg/kg/injection, schedule: Q01DX009 (ip), vehicle: saline 95 % of control | dose: 37.5 mg/kg/injection, schedule: Q01DX009 (ip), vehicle: saline 102 % of control
